Experimental data published in BindingDB's records for doi:10.1016/j.bmcl.2012.02.027 (Memorial Sloan-Kettering Cancer Center, 2012).

Molecular target: Presenilin-1 (Homo sapiens, UniProt P49768)
Assay: Inhibition of gamma-secretase in cell-free human HeLa membrane assessed as amyloid beta-42 production using APP as substrate

IC50: 0.3 nM
Compound: CC(C)C[C@H](NC(=O)[C@H](Cc1ccccc1)C[C@@H](O)[C@H](Cc1ccccc1)NC(=O)OC(C)(C)C)C(=O)N[C@@H](Cc1ccc(C(=O)c2ccccc2)cc1)C(=O)NCCCCCNC(=O)CCCC[C@@H]1SC[C@@H]2NC(=O)N[C@@H]21
